Experimental data reported in PubChem BioAssay AID256 (DTP/NCI, 2004).
Several values for one entry are separate records, joined by “and”; a condition that tells them apart may be missing. Identical values can stand only once. Inconclusive results and toxic doses are left out. Rule for the calls: active = survival T/C of 150% or more; inactive = T/C below 125% in these data.

System: CD2F1 mice, L1210 leukemia ip, survival T/C
Test: NCI In Vivo Anticancer Drug Screen. Data for tumor model L1210 Leukemia (intraperitoneal) in CD2F1 (CDF1) mice
Settings: higher = longer survival
How it was run: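 Transplantable tumor in mice; compound-treated vs vehicle-treated groups. Read-out = treated/control ratio of the measured endpoint.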

[1] = endpoint: mean survival time, dose: 50.0 mg/kg/injection, schedule: Q04DX002 (ip), vehicle: saline with Tween-80
[2] = endpoint: mean survival time, dose: 100.0 mg/kg/injection, schedule: Q04DX002 (ip), vehicle: saline with Tween-80
[3] = endpoint: mean survival time, dose: 200.0 mg/kg/injection, schedule: Q04DX002 (ip), vehicle: saline with Tween-80
[4] = endpoint: mean survival time, dose: 100.0 mg/kg/injection, schedule: Q04DX003 (ip), vehicle: saline with Tween-80
[5] = endpoint: mean survival time, dose: 200.0 mg/kg/injection, schedule: Q04DX003 (ip), vehicle: saline with Tween-80
[6] = endpoint: mean survival time, dose: 100.0 mg/kg/injection, schedule: Q01DX001 (ip), vehicle: saline
[7] = endpoint: mean survival time, dose: 200.0 mg/kg/injection, schedule: Q01DX001 (ip), vehicle: saline
[8] = endpoint: mean survival time, dose: 400.0 mg/kg/injection, schedule: Q01DX001 (ip), vehicle: saline
[9] = endpoint: mean survival time, dose: 100.0 mg/kg/injection, schedule: Q01DX009 (ip), vehicle: saline with Tween-80
[10] = endpoint: mean survival time, dose: 200.0 mg/kg/injection, schedule: Q01DX009 (ip), vehicle: saline with Tween-80
[11] = endpoint: mean survival time, dose: 400.0 mg/kg/injection, schedule: Q01DX009 (ip), vehicle: saline with Tween-80
[12] = endpoint: mean survival time, dose: 400.0 mg/kg/injection, schedule: Q04DX002 (ip), vehicle: saline with Tween-80
[13] = endpoint: mean survival time, dose: 50.0 mg/kg/injection, schedule: Q01DX009 (ip), vehicle: saline
[14] = endpoint: mean survival time, dose: 100.0 mg/kg/injection, schedule: Q01DX009 (ip), vehicle: saline
[15] = endpoint: mean survival time, dose: 400.0 mg/kg/injection, schedule: Q04DX003 (ip), vehicle: saline with Tween-80
[16] = endpoint: mean survival time, dose: 12.5 mg/kg/injection, schedule: Q01DX009 (ip), vehicle: other
[17] = endpoint: mean survival time, dose: 25.0 mg/kg/injection, schedule: Q01DX009 (ip), vehicle: other
[18] = endpoint: mean survival time, dose: 25.0 mg/kg/injection, schedule: Q01DX009 (ip), vehicle: water
[19] = endpoint: mean survival time, dose: 50.0 mg/kg/injection, schedule: Q01DX009 (ip), vehicle: water
[20] = endpoint: mean survival time, dose: 100.0 mg/kg/injection, schedule: Q01DX009 (ip), vehicle: water
[21] = endpoint: mean survival time, dose: 200.0 mg/kg/injection, schedule: Q01DX009 (ip), vehicle: water
[22] = endpoint: mean survival time, dose: 12.5 mg/kg/injection, schedule: Q01DX009 (ip), vehicle: water
[23] = endpoint: mean survival time, dose: 75.0 mg/kg/injection, schedule: Q01DX001 (ip), vehicle: saline
[24] = endpoint: mean survival time, dose: 150.0 mg/kg/injection, schedule: Q01DX001 (ip), vehicle: saline
[25] = endpoint: mean survival time, dose: 300.0 mg/kg/injection, schedule: Q01DX001 (ip), vehicle: saline
[26] = endpoint: mean survival time, dose: 50.0 mg/kg/injection, schedule: Q04DX003 (ip), vehicle: saline with Tween-80
[27] = endpoint: mean survival time, dose: 100.0 mg/kg/injection, schedule: Q04DX003 (ip), vehicle: saline
[28] = endpoint: mean survival time, dose: 200.0 mg/kg/injection, schedule: Q04DX003 (ip), vehicle: saline
[29] = endpoint: mean survival time, dose: 400.0 mg/kg/injection, schedule: Q04DX003 (ip), vehicle: saline

Measured: T/C

Nc1nc2c(ncn2-c2cccc(NC(=O)c3cccc(S(=O)(=O)F)c3)c2)c(=O)[nH]1
inactive: [1] 108 % of control | [2] 94 % of control | [3] 90 % of control

C=CCOC1C=CCCC1 (stereo unspecified)
inactive: endpoint: mean survival time, dose: 100.0 mg/kg/injection, schedule: Q04DX002 (ip), vehicle: saline 100 % of control | endpoint: mean survival time, dose: 200.0 mg/kg/injection, schedule: Q04DX002 (ip), vehicle: saline 100 % of control | endpoint: mean survival time, dose: 400.0 mg/kg/injection, schedule: Q04DX002 (ip), vehicle: saline 91 % of control

Cc1ncoc1C(=O)O
inactive: [4] 109 % of control | [5] 104 % of control

COc1ccc2c(c1)C1(C)CCCC(C#N)=C1CC2 (stereo unspecified)
inactive: [6] 96 % of control | [7] 96 % of control | [8] 92 % of control

CC(=O)OCC(OC(C)=O)C(OC(C)=O)C(OC(C)=O)C(OC(C)=O)OC(C)=O (stereo unspecified)
inactive: endpoint: mean survival time, dose: 100.0 mg/kg/injection, schedule: Q01DX001 (ip), vehicle: saline with Tween-80 94 % of control | endpoint: mean survival time, dose: 200.0 mg/kg/injection, schedule: Q01DX001 (ip), vehicle: saline with Tween-80 96 % of control | endpoint: mean survival time, dose: 400.0 mg/kg/injection, schedule: Q01DX001 (ip), vehicle: saline with Tween-80 96 % of control

CC(=O)OC1CCC2(C)C(=C(C)CC3C2CCC2(C)C(C(C)=O)CCC32)C1 (stereo unspecified)
inactive: [9] 98 % of control | [10] 95 % of control | [11] 97 % of control

COc1ccc(NC(=O)CCl)c(OC)c1
inactive: [2] 108 % of control | [3] 97 % of control | [12] 97 % of control

Cn1c(C[N+](C)(C)C)cc2ccccc21
inactive: [13] 90 % of control | [14] 93 % of control

O=C(c1ccccc1)C(O)c1ccccc1 (stereo unspecified)
inactive: [4] 90 % of control | [5] 96 % of control | [15] 97 % of control

OC1CCC(CC2CCCCC2)CC1 (stereo unspecified)
inactive: [9] 95 % of control | [10] 92 % of control

CN(C)c1nc(Cl)cc2c1ncn2C1OC(CO)C(O)C1O (stereo unspecified)
inactive: endpoint: mean survival time, dose: 100.0 mg/kg/injection, schedule: Q01DX005 (ip), vehicle: saline 117 % of control

Cc1cccc(Cl)c1OCC1CO1 (stereo unspecified)
inactive: [6] 110 % of control | [7] 110 % of control | [8] 110 % of control

COc1cc2c(cc1O)C(O)CNC2 (stereo unspecified)
inactive: [6] 104 % of control | [7] 93 % of control | [8] 98 % of control

CC(=O)N(/C=C\C=C\c1sc2ccccc2[n+]1C)c1ccccc1
inactive: [16] 108 % of control | [17] 115 % of control

OCC1OC(n2ncc3c(NCc4ccco4)ncnc32)C(O)C1O (stereo unspecified)
inactive: [18] 95 % of control | [19] 95 % of control | [20] 100 % of control | [21] 104 % of control | endpoint: mean survival time, dose: 400.0 mg/kg/injection, schedule: Q01DX009 (ip), vehicle: water 106 % of control

COc1ccc(OC)c2c1CCC(O)(C#N)C2 (stereo unspecified)
inactive: [22] 98 % of control | [18] 89 % of control

COc1cc(C(=O)NCCCCCC(=O)O)cc(OC)c1OC
inactive: [2] 91 % of control | [3] 95 % of control | [12] 88 % of control

CCC1(O)C(=O)OCc2c1cc1n(c2=O)Cc2cc3ccc([N+](=O)[O-])cc3nc2-1 (stereo unspecified)
inactive: endpoint: median survival time, dose: 10.0 mg/kg/injection, schedule: Q04DX002 (ip), vehicle: saline with Tween-80 114 % of control

CCC1(C)CC(=O)NC1=O (stereo unspecified)
inactive: [23] 98 % of control | [24] 104 % of control | [25] 96 % of control

O=C1OC(c2ccccc2)(c2ccccn2)c2ccccc21 (stereo unspecified)
inactive: [4] 90 % of control | [5] 88 % of control | [15] 91 % of control

COc1ccc(C2=NCCc3cc(OC)c(OC)cc32)cc1OC
inactive: [16] 90 % of control | [17] 92 % of control

O=C1N(CCO)CNC1(c1ccccc1)c1ccccc1
inactive: [26] 94 % of control | [4] 107 % of control | [5] 98 % of control

O=C1NC(=O)C2(CCN(Cc3ccccc3)CC2)C(=O)N1
inactive: [23] 96 % of control | [24] 98 % of control | [25] 96 % of control

CC1=CC2C(O)(CC(CO)=CC3C4C(C)(C)C4(OC(=O)c4ccccc4)C(OC(=O)c4ccccc4)C(C)C32O)C1=O (stereo unspecified)
inactive: endpoint: median survival time, dose: 0.25 mg/kg/injection, schedule: Q01DX009 (ip), vehicle: saline with Tween-80 95 % of control | endpoint: median survival time, dose: 0.5 mg/kg/injection, schedule: Q01DX009 (ip), vehicle: saline with Tween-80 94 % of control | endpoint: median survival time, dose: 1.0 mg/kg/injection, schedule: Q01DX009 (ip), vehicle: saline with Tween-80 94 % of control

COc1ccc(/C=C(/C)C(=O)c2ccccc2)cc1
inactive: endpoint: mean survival time, dose: 100.0 mg/kg/injection, schedule: Q01DX009 (ip), vehicle: Klucel (hydroxypropylcellulose) (HPC) 97 % of control | endpoint: mean survival time, dose: 200.0 mg/kg/injection, schedule: Q01DX009 (ip), vehicle: Klucel (hydroxypropylcellulose) (HPC) 97 % of control | endpoint: mean survival time, dose: 400.0 mg/kg/injection, schedule: Q01DX009 (ip), vehicle: Klucel (hydroxypropylcellulose) (HPC) 91 % of control

CCc1c(O)c2c(c(O)c1C(C)=O)C(=O)c1c(cc(O)c(C(=O)O)c1C(=O)O)C2=O
inactive: [13] 108 % of control | [14] 116 % of control

CC1(C)OCC2OC3(C(=O)O)OC(C)(C)OC3C2O1 (stereo unspecified)
inactive: endpoint: mean survival time, dose: 50.0 mg/kg/injection, schedule: Q01DX005 (ip), vehicle: saline with Tween-80 88 % of control | endpoint: mean survival time, dose: 50.0 mg/kg/injection, schedule: Q01DX009 (ip), vehicle: saline with Tween-80 98 % of control | [1] 108 % of control | endpoint: mean survival time, dose: 100.0 mg/kg/injection, schedule: Q01DX005 (ip), vehicle: saline with Tween-80 88 % of control | [9] 95 % of control | [2] 97 % of control | endpoint: mean survival time, dose: 200.0 mg/kg/injection, schedule: Q01DX005 (ip), vehicle: saline with Tween-80 92 % of control | [10] 92 % of control | [3] 93 % of control | endpoint: mean survival time, dose: 400.0 mg/kg/injection, schedule: Q01DX005 (ip), vehicle: saline with Tween-80 88 % of control | [11] 88 % of control | [12] 86 % of control

CC1=C(c2ccccc2)OS(=O)(=O)NC1=O
inactive: [22] 93 % of control | [18] 91 % of control | [19] 93 % of control | [20] 93 % of control | [21] 88 % of control

NC(=O)CCC(=O)NCCN1CC1
inactive: endpoint: mean survival time, dose: 25.0 mg/kg/injection, schedule: Q04DX003 (ip), vehicle: saline 97 % of control | endpoint: mean survival time, dose: 50.0 mg/kg/injection, schedule: Q04DX003 (ip), vehicle: saline 97 % of control | [6] 104 % of control | [27] 96 % of control | [7] 98 % of control | [8] 115 % of control

CCCC[N+](=O)[O-]
inactive: [27] 98 % of control | [28] 100 % of control | [29] 102 % of control

COc1cc(-c2ccc(N=Nc3ccc4c(S(=O)(=O)O)cc(S(=O)(=O)O)c(N)c4c3O)c(OC)c2)ccc1N=Nc1ccc2c(S(=O)(=O)O)cc(S(=O)(=O)O)c(N)c2c1O
inactive: endpoint: mean survival time, dose: 6.25 mg/kg/injection, schedule: Q01DX009 (ip), vehicle: saline 100 % of control | endpoint: mean survival time, dose: 12.5 mg/kg/injection, schedule: Q01DX009 (ip), vehicle: saline 100 % of control | endpoint: mean survival time, dose: 25.0 mg/kg/injection, schedule: Q01DX009 (ip), vehicle: saline 105 % of control

CC(=O)Nc1ccc2ccccc2c1-c1c(NC(C)=O)ccc2ccccc12
inactive: [4] 87 % of control | [15] 95 % of control

CC1(C)OC1C(=O)O (stereo unspecified)
inactive: [27] 106 % of control | [28] 96 % of control | [29] 98 % of control

Cc1ccc(S(=O)(=O)NOCCCCONS(=O)(=O)c2ccc(C)cc2)cc1
inactive: endpoint: mean survival time, dose: 25.0 mg/kg/injection, schedule: Q04DX003 (ip), vehicle: saline with Tween-80 91 % of control | [26] 89 % of control | [4] 89 % of control and 97 % of control
